Results on one compound are retold here after patent US20260265239A1, “CRYSTAL FORM OF 2,6-PIPERIDINEDIONE COMPOUND, AND PREPARATION METHOD THEREFOR AND USE THEREOF” (ZHANGZHOU PIEN TZE HUANG PHARMACEUTICAL CO., LTD., priority 2023, published 2026).

SMILES strings stand for the structures. Counter-ions that a name gives are not always drawn.

The test system of data set [1] is human diffuse large B-cell lymphoma TMD-8 cells. Nature of the data set: BALB/c nude mouse subcutaneous xenograft tumor model of human diffuse large B-cell lymphoma TMD-8 cells. The data set is classed as in vivo, BALB/c nude mice. The conditions noted are these: for Tumor Volume (Day 0) / Tumor Volume (Day 22): mean ± SEM. The method, then: The antitumor effect of the test compound was evaluated using a BALB/c nude mouse subcutaneous xenograft tumor model of human diffuse large B-cell lymphoma TMD-8 cells.
• 1. Experimental animals: BALB/c nude mice, female, 6 to 8 weeks old. Vital River Laboratory Animal Technology Co., Ltd. • 2. Cell line: Human diffuse large B-cell lymphoma TMD-8 cells (purchased from Shanghai Huzhen Industrial Co., Ltd.).
Cell culture: Routine cell culture was conducted in RPMI-1640 medium containing 10% fetal bovine serum under 5% CO2 at 37° C. Cells were passaged based on cell growth conditions at a passage ratio of 1:3 to 1:4.
Tumor cell inoculation and grouping: TMD-8 cells in the logarithmic growth phase were harvested, counted, and resuspended in a mixture of 50% serum-free RPMI-1640 medium and 50% Matrigel. The cell concentration was adjusted to 4.0×10^7 cells/mL. The cell suspension was placed in an ice box, aspirated using a 1-mL syringe, and injected subcutaneously into the right forelimb axilla of nude mice at 200 μL per animal (0.8×10^7 cells/mouse) to establish the TMD-8 xenograft tumor model. Administration was started when the average tumor volume reached approximately 160 mm^3. The day of grouping was designated as Day 1 (D1) of the experiment, and administration was started based on animal body weight.
The pharmacodynamic experiment was conducted with a 7-day administration cycle, where the test compound was administered once daily intragastrically at 24-hour intervals, for a total of three cycles. During the experiment, animal body weight and tumor size were measured twice a week, and clinical symptoms were observed and recorded daily.
The test compound was administered at doses of 10 mg/kg, 30 mg/kg, and 100 mg/kg, with the vehicle being 10% DMSO/10% Solutol HS15/80% water. Tumor volume (TV) was calculated using the formula: ½×a×b^2, where a and b represent the measured length and width of the tumor, respectively. The tumor growth inhibition rate (TGI, %) was calculated using the formula: TGI (%)=[1−(average tumor volume at the end of administration in a treatment group−average tumor volume at the beginning of administration in this treatment group)/(average tumor volume at the end of treatment in the vehicle control group−average tumor volume at the beginning of treatment in the vehicle control group)]×100%. The relative tumor proliferation rate (T/C, %) was calculated using the formula: T/C %=TRTV/CRTV[…] (TRTV: mean RTV of the treatment group; CRTV: mean RTV of the negative control group). The relative tumor volume (RTV) was calculated based on the tumor measurement results, with the formula RTV=Vt/V0, where V0 is the tumor volume measured at the time of grouping administration (i.e., Day 1), and Vt is the tumor volume at a certain measurement time. TRTV and CRTV were derived from data on the same day.
The experimental data were calculated and subjected to relevant statistical processing using Microsoft Office Excel 2007 software. Unless otherwise specified, the data were expressed as mean±standard error (Mean±SE), and comparisons between groups were performed using t-tests.
(Xenograft models place foreign cells or tissue in a host animal.)

Data set [2] can be described thus: Pharmacokinetic evaluation in mice. The data set is classed as in vivo, C57BL/6 or C57 male mice. The text has this:
C57BL/6 or C57 male mice were selected as the test animals for this study. The LC/MS/MS method was employed to quantitatively determine the plasma drug concentrations at various time points after intravenous injection or intragastric administration of the test compound, aiming to evaluate the pharmacokinetic characteristics of the compound of the present disclosure in mice.
C57BL/6 or C57 mice (male, 20 to 30 g, 7 to 10 weeks old, Beijing Vital River).
A clear solution of the test compound was injected intravenously into the tail vein of C57BL/6 mice (fasted overnight) (vehicle: 10% DMSO/10% solutol/80% H2O), or administered intragastrically to C57 mice (fed). […] The mixture was thoroughly vortexed and mixed, and centrifuged at 6000 g for 3 minutes at 2 to 8° C. […] The mixture was thoroughly vortexed and mixed, and centrifuged at 6000 g for 3 minutes at 2 to 8° C. Plasma drug concentrations were determined by the LC-MS/MS method, and relevant pharmacokinetic parameters were calculated using Phoenix WinNonlin 8.2.0 pharmacokinetic software with non-compartmental model linear-log trapezoidal method.

Data set [3] is described as follows: Pharmacokinetic evaluation in beagle dogs. The data set is classed as in vivo. An excerpt: Male beagle dogs were selected as the experimental animals in this study. The LC/MS/MS method was employed to quantitatively determine the plasma drug concentrations at different time points after intravenous injection or intragastric administration of the test compound, aiming to evaluate the pharmacokinetic characteristics of the compound of the present disclosure in beagle dogs.
Beagle dogs (male, 7 to 10 kg, Beijing Mars Biotechnology Co., Ltd.).
A solution of the test compound was slowly injected intravenously into beagle dogs (fed) via the peripheral vein (vehicle: 5% DMSO/10% Solutol/85% H2O), or administered intragastrically to beagle dogs (fed). For intravenous administration, 0.5 mL of blood was collected from the peripheral vein at 0.083, 0.25, 0.5, 1, 2, 4, 6, 8, and 24 h after administration, placed in EDTA-2K anticoagulant tubes, and centrifuged at 3200 g for 10 minutes at 2 to 8° C. to separate the supernatant. For intragastric administration, 0.5 mL of blood was collected from the peripheral vein at 0.083, 0.25, 0.5, 1, 2, 4, 6, 8, and 24 h after administration, placed in EDTA-2K anticoagulant tubes, and centrifuged at 3200 g for 10 minutes at 2 to 8° C. to separate the supernatant. Plasma drug concentrations were determined by the LC-MS/MS method, and relevant pharmacokinetic parameters were calculated using Phoenix WinNonlin 6.3 or 8.3.5 pharmacokinetic software with non-compartmental model linear-log trapezoidal method.

Setting [4] is: 10 mg/kg intragastric once daily.
Where [5] appears, read: 30 mg/kg intragastric once daily.
[6] abbreviates: 100 mg/kg intragastric once daily.
[7] abbreviates: Intragastric administration (10 mg/kg) (fed).
Setting [8] is: Intragastric administration, 5 mg/kg.
The mark [9] stands for this setting: Intragastric administration, 15 mg/kg.
The mark [10] stands for this setting: Intravenous Injection (0.5 mg/kg).

With `O=C1CCC(c2noc3ccc4c(NC(=O)CN5CCN(C[C@H]6CC[C@H](n7cc(NC(=O)c8coc(-c9ccnc(NCC%10CC%10)c9)n8)c(C(F)F)n7)CC6)CC5)cccc4c23)C(=O)N1` (stereo partly drawn) [Hydrochloride of Compound of Formula (I)], the “T/C (Day 22)” value in data set [1] (setting [4]) is given as 58%; in data set [1] (setting [5]), 34%; in data set [1] (setting [6]), 23%. Also, the “TGI (Day 22)” value in data set [1] (setting [4]) was found to be 49%; in data set [1] (setting [5]), 75%; in data set [1] (setting [6]), 88%. Moreover, the “Tumor Volume (Day 0)” value in data set [1] (setting [4]) is reported as 161 ± 12 mm^3; in data set [1] (setting [5]), 160 ± 9 mm^3; in data set [1] (setting [6]), 160 ± 8 mm^3. The “Tumor Volume (Day 22)” value is listed as 714 ± 153 mm^3 in data set [1] (setting [4]), 430 ± 98 mm^3 in data set [1] (setting [5]) and 291 ± 70 mm^3 in data set [1] (setting [6]). Besides, the “Area Under the Drug-Time Curve (0-inf)” value in data set [2] (setting [7]) was 4.47 µM·h; in data set [2] (Intravenous Injection (2 mg/kg) (fasted)), 5.40 µM·h; in data set [3] (setting [8]), 3.20 µM·h; in data set [3] (setting [9]) it was 8.02 µM·h; in data set [3] (setting [10]) it was 0.44 µM·h. The “Peak Concentration” value in data set [2] (setting [7]) came out at 0.54 µM; in data set [3] (setting [8]) it was 0.41 µM; in data set [3] (setting [9]) it was 0.87 µM. The “Time to Peak Concentration” value was 1.00 h in data set [2] (setting [7]), 4.00 h in data set [3] (setting [8]) and 4.00 h in data set [3] (setting [9]). Moreover, the “Apparent Distribution Volume” value in data set [3] (setting [10]) was found to be 5.83 L/kg.
